Experiments:
[1] = tested on: corneal angiogenesis induced by vascular endothelial growth factor (VEGF); conditions: cited from earlier work
[2] = tested on: angiogenesis induced by basic fibroblast growth factor (bFGF); conditions: cited from earlier work
[3] = tested on: angiogenesis; conditions: oral; cited from earlier work
[4] = tested on: human vascular endothelial cells (HUVECS); experiment: Endothelial cell proliferation assay ([3H]-thymidine incorporation); assay type: cell-based; conditions: HUVEC, 20% serum, preliminary IC50 data, read-out: Inhibition of Endothelial Cell Proliferation (IC50 μM)
Protocol: Endothelial Cell Proliferation Assay.
The human vascular endothelial cells (HUVECS) were cultured to peri-confluence (80%) in 20% serum and treated with thalidomide (standard) or its analog (40-400 μM). After 20 h, [^3H]-thymidine (2 μCi/ml) was added to the culture medium for 2-4 h. The [^3H]-thymidine incorporation was stopped with ice-cold PBS (3 washes) and the cells were incubated with cold 10% trichloroacetic acid (TCA) for 10 min at 4° C. The cells were further incubated with TCA at room temperature for 10 min and washed three times with PBS. The cells were solubilized overnight with 1N NaOH and neutralized with an equivalent amount of 1N HCl before radioactivity was determined. The anti-proliferative activity of thalidomide or its analog was computed as a percent inhibition of HUVECS mitogenic response to 20% serum (fetal calf serum).

[5] = tested on: endothelial cells; conditions: in vitro; cited from earlier work

| SMILES | IC50 [4] [µM] | further results |
| --- | --- | --- |
| O=C1CC[C@H](N2C(=O)c3ccccc3C2=O)C(=O)N1 (single isomer, unassigned) [S(−)-enantiomer of thalidomide] | – | anti-angiogenic activity of enantiomers, VEGF-induced corneal neovascularization ([1]; comparison of enantiomers): strongest anti-angiogenic activity; anti-angiogenic activity of enantiomers, bFGF-induced corneal neovascularization ([2]; comparison of enantiomers): strongest anti-angiogenic activity |
| O=C1CCC(N2C(=O)c3ccccc3C2=O)C(=O)N1 (stereo not drawn) [Compound 1, thalidomide] | 200 | inhibition of corneal angiogenesis ([1]; rabbits, pellet with 500 or 750 ng VEGF, two daily feedings of 200 mg/kg, after the 5th day of treatment, P<0.0001): statistically significant inhibition; effect on angiogenesis, bFGF induced corneal micropocket ([2]; rabbit): inhibitory effects; effect on angiogenesis, orally in mice models [3]: inhibitory effects; endothelial cell proliferation in treated cultures [5]: significant decrease |
| O=C1c2ccccc2C(=O)N1c1ccc2c(c1)CCC2 [Compound 5] | 85 | – |
| O=C1c2ccccc2C(=O)N1C1CCCc2ccccc21 (stereo not drawn) [Compound 7] | > 400 | – |
| CCC(c1cccc2ccccc12)N1C(=O)c2ccccc2C1=O (stereo not drawn) [Compound 29] | 45 | – |
| CCCCCCC(c1ccc(OC)c(OC)c1)N1C(=O)c2ccccc2C1=O (stereo not drawn) [Compound 32] | < 38.5 | – |
| CCOc1ccccc1N1C(=O)c2ccccc2C1=O [Compound 50] | 110 | – |
| Cc1cc(N)ccc1N1C(=O)c2ccc(Cl)cc2C1=O [Compound 51] | 350 | – |
| O=C1CC(N2C(=O)c3ccccc3C2=O)CC(=O)O1 [Compound 52] | > 400 | – |
| O=C1NC(=O)c2c1cccc2[N+](=O)[O-] [Compound 53] | > 400 | – |

Source: patent US7893071B2, “Synthesis and evaluation of novel phthalimide mimics as anti-angiogenic” (University of Virginia Patent Foundation, priority 2001, dated 2011)
